Data on 15 molecules can be found in patent US12338256B2, “Aza-tetracyclic oxazepine compounds and uses thereof” (Genentech, Inc., priority 2022, dated 2025).

For test [1], the system named is HPAC (homozygous mutant KRAS G12D human pancreatic cell line). The experiment in a line: KRAS 3D-Cell Proliferation Assay, HPAC (Example 503). In kind it is cell-based. The note with it: Homo sapiens, HPAC, 168 h, HPAC 3D culture, 7 days, CellTiter-Glo 3D; read-out: Prolif HPAC 3D ATP IC50. The method in brief: (§1)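 Cells grown in 3D in ultra-low attachment plates (RPMI-1640 with 10% FBS and 2 mM L-glutamine) received compound dilution series after overnight attachment, at 0.3% DMSO final, for 7 days at 37° C. ATP luminescence (CellTiter-Glo 3D) normalized to DMSO and 1 μM staurosporine; IC50 from 4-parameter Hill fit.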
(In general: Cellular ATP, detected with luciferase, serves as a proxy for viable cell number.)

Test [2] deals with H1975 (KRAS wild type human lung adenocarcinoma cell line). The experiment in a line: KRAS 3D-Cell Proliferation Assay, H1975 (Example 503). In kind it is cell-based. The note with it: Homo sapiens, NCI-H1975, 168 h, H1975 3D culture, 7 days, CellTiter-Glo 3D; read-out: Prolif H1975 3D ATP IC50. A digest of the protocol: as §1

The IC50 is the concentration at which inhibition is half-maximal. Take `Cc1c(F)c(N)cc(-c2nc3c4c(nc(OCC[C@@H]5CC[C@H]6COCCN56)nc4c2F)N2C[C@H]4CC[C@H](N4)[C@H]2[C@H](C)O3)c1C(F)(F)F` [Compound 154, 2-Fluoro-5-((5S,5aS,6S,9R)-1-fluoro-12-(2-((6S,8aS)-hexahydro-1H-pyrrolo[2,1-c][1,4]oxazin-6-yl)ethoxy)-5-methyl-5a,6,7,8,9,10-hexahydro-5H-4-oxa-3,10a,11,13,14-pentaaza-6,9-methanonaphtho[1,8-ab]heptalen-2-yl)-3-methyl-4-(trifluoromethyl)aniline]: the IC50 worked out at 0.0205 µM in test [1] and 4.1 µM in test [2].
Regarding `C[C@@H]1Oc2nc(-c3cc(N)c(F)c(F)c3C(F)(F)F)c(F)c3nc(OCC45CCN4CC(F)(F)C5)nc(c23)N2C[C@H]3CC[C@H](N3)[C@@H]12` (stereo partly drawn) [Compound 155, 5-((5S,5aS,6S,9R)-12-((3,3-difluoro-1-azabicyclo[3.2.0]heptan-5-yl)methoxy)-1-fluoro-5-methyl-5a,6,7,8,9,10-hexahydro-5H-4-oxa-3,10a,11,13,14-pentaaza-6,9-methanonaphtho[1,8-ab]heptalen-2-yl)-2,3-difluoro-4-(trifluoromethyl)aniline], the IC50 in test [1] was 0.00884 µM; in test [2], 4.75 µM.
For the molecule `C[C@@H]1Oc2nc(-c3cc(N)cc(F)c3C(F)(F)F)c(F)c3nc(OCC4CCC5N4CCOC5(C)C)nc(c23)N2C[C@H]3CC[C@H](N3)[C@@H]12` (stereo partly drawn) [Compound 157, 3-((5S,5aS,6S,9R)-12-((1,1-Dimethylhexahydro-1H-pyrrolo[2,1-c][1,4]oxazin-6-yl)methoxy)-1-fluoro-5-methyl-5a,6,7,8,9,10-hexahydro-5H-4-oxa-3,10a,11,13,14-pentaaza-6,9-methanonaphtho[1,8-ab]heptalen-2-yl)-5-fluoro-4-(trifluoromethyl)aniline], the figures for the IC50 in test [1] and in test [2] were 0.0128 µM and 2.14 µM, respectively.
Taken in the same sequence, the figures for `C[C@@H]1Oc2nc(-c3cc(N)c(F)c(F)c3CC(F)F)c(F)c3cc(OC[C@@H]4CC[C@H]5COCCN54)nc(c23)N2C[C@H]3CC[C@H](N3)[C@@H]12` [Compound 158, 4-(2,2-Difluoroethyl)-2,3-difluoro-5-((5S,5aS,6S,9R)-1-fluoro-13-(((6S,8aS)-hexahydro-1H-pyrrolo[2,1-c][1,4]oxazin-6-yl)methoxy)-5-methyl-5a,6,7,8,9,10-hexahydro-5H-6,9-epiminoazepino[2′,1′:3,4][1,4]oxazepino[5,6,7-ij][2,7]naphthyridin-2-yl)aniline] were 0.00994 µM and 13.8 µM.
With `Cc1c(F)c(N)cc(-c2nc3c4c(nc(OC[C@H]5[C@H](C#N)CCN5C)nc4c2F)N2C[C@H]4CC[C@H](N4)[C@H]2[C@H](C)O3)c1C(F)(F)F` [Compound 161, (2R,3R)-2-((((5S,5aS,6S,9R)-2-(5-Amino-4° fluoro-3-methyl-2-(trifluoromethyl)°henyl)-1-fluoro-5-methyl-5a,6,7,8,9,10-hexahydro-5H-4-oxa-3,10a,11,13,14-pentaaza-6,9-methanonaphtho[1,8-ab]heptalen-12-yl)oxy)methyl)-1-methylpyrrolidine-3-carbonitrile], the figures for the IC50 in test [1] and in test [2] were 0.0689 µM and 13 µM, respectively.
`Cc1c(F)c(N)cc(-c2nc3c4c(nc(OCCCN5C[C@H]6C[C@@H]5CO6)nc4c2F)N2C[C@H]4CC[C@H](N4)[C@H]2[C@H](C)O3)c1C(F)(F)F` [Compound 163, 5-((5S,5aS,6S,9R)-12-(3-((1R,4R)-2-Oxa-5-azabicyclo[2.2.1]heptan-5-yl)propoxy)-1-fluoro-5-methyl-5a,6,7,8,9,10-hexahydro-5H-4-oxa-3,10a,11,13,14-pentaaza-6,9-methanonaphtho[1,8-ab]heptalen-2-yl)-2-fluoro-3-methyl-4-(trifluoromethyl)aniline]: the IC50 turned out to be 0.0102 µM in test [1] and 1.14 µM in test [2].
The like results for `Cc1c(F)c(N)cc(-c2nc3c4c(nc(OCCCN5C[C@@H]6C[C@H]5CO6)nc4c2F)N2C[C@H]4CC[C@H](N4)[C@H]2[C@H](C)O3)c1C(F)(F)F` [Compound 164, 5-((5S,5aS,6S,9R)-12-(3-((1S,4S)-2-oxa-5-azabicyclo[2.2.1]heptan-5-yl)propoxy)-1-fluoro-5-methyl-5a,6,7,8,9,10-hexahydro-5H-4-oxa-3,10a,11,13,14-pentaaza-6,9-methanonaphtho[1,8-ab]heptalen-2-yl)-2-fluoro-3-methyl-4-(trifluoromethyl)aniline] were, in that order, 0.0438 µM and 7.11 µM.
Take `Cc1c(F)c(N)cc(-c2nc3c4c(nc(OCC5(CN6C[C@@H]7C[C@H]6CO7)CC5)nc4c2F)N2C[C@H]4CC[C@H](N4)[C@H]2[C@H](C)O3)c1C(F)(F)F` [Compound 169, 5-((5S,5aS,6S,9R)-12-((1-(((1S,4S)-2-Oxa-5-azabicyclo[2.2.1]heptan-5-yl)methyl)cyclopropyl)methoxy)-1-fluoro-5-methyl-5a,6,7,8,9,10-hexahydro-5H-4-oxa-3,10a,11,13,14-pentaaza-6,9-methanonaphtho[1,8-ab]heptalene-2-yl)-2-fluoro-3-methyl-4-(trifluoromethyl)aniline]: the results for the IC50 in test [1] and in test [2] were 0.00092 µM and 0.454 µM, respectively.
The like results for `Cc1c(F)c(N)cc(-c2nc3c4c(nc(OCC5(CN6CCO[C@H](CF)C6)CC5)nc4c2F)N2C[C@H]4CC[C@H](N4)[C@H]2[C@H](C)O3)c1C(F)(F)F` [Compound 171, 2-Fluoro-5-((5S,5aS,6S,9R)-1-fluoro-12-((1-(((S)-2-(fluoromethyl)morpholino)methyl)cyclopropyl)methoxy)-5-methyl-5a,6,7,8,9,10-hexahydro-5H-4-oxa-3,10a,11,13,14-pentaaza-6,9-methanonaphtho[1,8-ab]heptalen-2-yl)-3-methyl-4-(trifluoromethyl)aniline] were, in that order, 0.00133 µM and 0.904 µM.
As for `Cc1c(F)c(N)cc(-c2nc3c4c(nc(OCC5(CN6CCO[C@@H](CF)C6)CC5)nc4c2F)N2C[C@H]4CC[C@H](N4)[C@H]2[C@H](C)O3)c1C(F)(F)F` [Compound 172, 2-Fluoro-5-((5S,5aS,6S,9R)-1-fluoro-12-((1-(((R)-2-(fluoromethyl)morpholino)methyl)cyclopropyl)methoxy)-5-methyl-5a,6,7,8,9,10-hexahydro-5H-4-oxa-3,10a,11,13,14-pentaaza-6,9-methanonaphtho[1,8-ab]heptalen-2-yl)-3-methyl-4-(trifluoromethyl)aniline], the IC50 in test [1] was determined as 0.00172 µM; in test [2], 0.864 µM.
Consider `Cc1c(F)c(N)cc(-c2nc3c4c(nc(OCC5(CN6CC(F)C6)CC5)nc4c2F)N2C[C@H]4CC[C@H](N4)[C@H]2[C@H](C)O3)c1C(F)(F)F` [Compound 173, 2-Fluoro-5-((5S,5aS,6S,9R)-1-fluoro-12-((1-((3-fluoroazetidin-1-yl)methyl)cyclopropyl)methoxy)-5-methyl-5a,6,7,8,9,10-hexahydro-5H-4-oxa-3,10a,11,13,14-pentaaza-6,9-methanonaphtho[1,8-ab]heptalene-2-yl)-3-methyl-4-(trifluoromethyl)aniline], for which the IC50 worked out at 0.00133 µM in test [1] and 0.917 µM in test [2].
The like results for `Cc1c(F)c(N)c(F)c(-c2nc3c4c(nc(OC[C@@]56CCCN5C[C@H](F)C6)nc4c2F)N2C[C@H]4CC[C@H](N4)[C@H]2[C@H](C)O3)c1CC(F)F` [Compound 175, 4-(2,2-Difluoroethyl)-2,6-difluoro-3-((5S,5aS,6S,9R)-1-fluoro-12-(((2R,7aS)-2-fluorotetrahydro-1H-pyrrolizin-7a(5H)-yl)methoxy)-5-methyl-5a,6,7,8,9,10-hexahydro-5H-4-oxa-3,10a,11,13,14-pentaaza-6,9-methanonaphtho[1,8-ab]heptalen-2-yl)-5-methylaniline] were, in that order, 0.0196 µM and 2.34 µM.
With `Cc1cc(-c2nc3c4c(nc(OC[C@@]56CCCN5C[C@H](F)C6)nc4c2F)N2C[C@H]4CC[C@H](N4)[C@H]2[C@H](C)O3)c(F)c(N)n1` [Compound 177, 3-Fluoro-4-((5S,5aS,6S,9R)-1-fluoro-12-(((2R,7aS)-2-fluorotetrahydro-1H-pyrrolizin-7°(5H)-yl)methoxy)-5-methyl-5°,6,7,8,9,10-hexahydro-5H-4-oxa-3,10°,11,13,14-pentaaza-6,9-methanonaptho[1,8-ab]heptalen-2-yl)-6-methylpyridin-2-amine], the IC50 in test [1] stood at 4.45 µM; in test [2] it was 20 µM.
`C[C@@H]1Oc2nc(-c3cc(N)cnc3C(F)(F)F)c(F)c3nc(OC[C@@]45CCCN4C[C@H](F)C5)nc(c23)N2C[C@H]3CC[C@H](N3)[C@@H]12` [Compound 178, 5-((5S,5aS,6S,9R)-1-Fluoro-12-(((2R,7aS)-2-fluorotetrahydro-1H-pyrrolizin-7a(5H)-yl)methoxy)-5-methyl-5a,6,7,8,9,10-hexahydro-5H-4-oxa-3,10a,11,13,14-pentaaza-6,9-methanonaphtho[1,8-ab]heptalene-2-yl)-6-(trifluoromethyl)pyridin-3-amine]: the IC50 in test [1] was 0.133 µM; in test [2], 9.28 µM.
As to `CCc1cccc2nc(N)cc(-c3nc4c5c(nc(OC[C@@]67CCCN6C[C@H](F)C7)nc5c3F)N3C[C@H]5CC[C@H](N5)[C@H]3[C@H](C)O4)c12` [Compound 179, 5-Ethyl-4-((5S,5aS,6S,9R)-1-fluoro-12-(((2R,7aS)-2-fluorotetrahydro-1H-pyrrolizin-7a(5H)-yl)methoxy)-5-methyl-5a,6,7,8,9,10-hexahydro-5H-4-oxa-3,10a,11,13,14-pentaaza-6,9-methanonaphtho[1,8-ab]heptalene-2-yl)quinolin-2-amine], the results for the IC50 in test [1] and in test [2] were 0.294 µM and 8.41 µM, respectively.
